# Assay results taken from patent US20220251116A1, “ALKYLBORONIC ACIDS AS ARGINASE INHIBITORS” (Guangdong Newopp Biopharmaceuticals Co., Ltd., priority 2019, published 2022).
# Structures can show the parent of a compound that is named as a salt.
# Molecular target: T1, recombinant human arginase 1 (Homo sapiens, UniProt P05089)
# T1 sequence (P05089 1-322): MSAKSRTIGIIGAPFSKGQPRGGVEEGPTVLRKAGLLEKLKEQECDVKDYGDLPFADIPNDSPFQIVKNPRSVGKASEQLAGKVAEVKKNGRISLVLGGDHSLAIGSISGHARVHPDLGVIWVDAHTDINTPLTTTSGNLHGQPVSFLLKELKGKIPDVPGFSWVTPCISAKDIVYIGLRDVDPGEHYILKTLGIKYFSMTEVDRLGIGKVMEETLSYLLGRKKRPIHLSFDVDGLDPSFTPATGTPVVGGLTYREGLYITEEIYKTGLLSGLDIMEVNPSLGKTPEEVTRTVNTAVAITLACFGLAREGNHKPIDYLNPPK
# Assay: Arginase inhibitory activity test, enzymatic assay based on urea measurement (Arg 1);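 further: enzyme incubated with L-arginine substrate and compound at 37 °C for 120 min, urea product detected colorimetrically by absorbance at 450 nm, background from wells lacking enzyme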
# Procedure: An enzymatic assay with recombinant human arginases 1 or 2 was used to measure inhibitory activity of the compounds. The assay is based on urea measurement, which is a product of L-arginine enzymatic degradation.
# Briefly, arginase and the substrate solution containing L-arginine were incubated in the absence or presence of varying concentrations of compounds at 37° C. for 120 min. For the background correction, only the substrate solution was added without arginase. The urea detection reagent from QuantiChrome™ Urea assay kit (BioAssay Systems, CA) was added to develop the color product. After 60 min at room temperature, the absorbance was measured at 450 nm with CLARIOstar (BMG LABTECH). Urea was used as the standard.
row,IC50 [nM],Structure (SMILES)
1,1000 to 10000,"CNS(=O)(=O)N1C[C@H](CCCB(O)O)[C@](N)(C(=O)O)C1 (racemic) [Example 2, (rac)trans-3-amino-4-(3-boronopropyl)-1-(N-methylsulfamoyl)pyrrolidine-3-carboxylic acid, (1:1) 2,2,2-trifluoroacetic acid salt]"
2,1000 to 10000,"NC(=O)CNS(=O)(=O)N1C[C@H](CCCB(O)O)[C@](N)(C(=O)O)C1 (racemic) [Example 7, (rac)trans-3-amino-1-(N-(2-amino-2-oxoethyl)sulfamoyl)-4-(3-boronopropyl)pyrrolidine-3-carboxylic acid, (1:1) 2,2,2-trifluoroacetic acid salt]"
3,100 to 1000,"NCC(=O)NS(=O)(=O)N1C[C@H](CCCB(O)O)[C@](N)(C(=O)O)C1 (racemic) [Example 8, (rac)trans-3-amino-4-(3-boronopropyl)-1-(N-glycylsulfamoyl)pyrrolidine-3-carboxylic acid, (1:2) 2,2,2-trifluoroacetic acid salt]"
4,100 to 1000,"CC(C)(O)CNS(=O)(=O)N1C[C@H](CCCB(O)O)[C@](N)(C(=O)O)C1 (racemic) [Example 9, (rac)trans-3-amino-4-(3-boronopropyl)-1-(N-(2-hydroxy-2-methylpropyl)sulfamoyl)pyrrolidine-3-carboxylic acid, (1:1) 2,2,2-trifluoroacetic acid salt]"
5,100 to 1000,"N[C@@]1(C(=O)O)CN(S(=O)(=O)NCCO)C[C@@H]1CCCB(O)O (racemic) [Example 10, (rac)trans-3-amino-4-(3-boronopropyl)-1-(N-(2-hydroxyethyl)sulfamoyl)pyrrolidine-3-carboxylic acid (1:1), 2,2,2-trifluoroacetic acid salt]"
6,1000 to 10000,"CC(C)C(NS(=O)(=O)N1CC(CCCB(O)O)C(N)(C(=O)O)C1)C(=O)O (racemic) [Example 11, (rac)trans-3-amino-4-(3-boronopropyl)-1-(N-((S)-1-carboxy-2-methylpropyl)sulfamoyl)pyrrolidine-3-carboxylic acid (diastereomer), (1:1) 2,2,2-trifluoroacetic acid salt]"
7,< 100,"NCC1(NS(=O)(=O)N2C[C@H](CCCB(O)O)[C@](N)(C(=O)O)C2)CC1 (racemic) [Example 12, (rac)trans-3-amino-1-(N-(1-(aminomethyl)cyclopropyl)sulfamoyl)-4-(3-boronopropyl)pyrrolidine-3-carboxylic acid, (1:2) 2,2,2-trifluoroacetic acid salt]"
8,100 to 1000,"Nc1ccccc1NS(=O)(=O)N1C[C@H](CCCB(O)O)[C@](N)(C(=O)O)C1 (racemic) [Example 13, (rac)trans-3-amino-1-(N-(2-aminophenyl)sulfamoyl)-4-(3-boronopropyl)pyrrolidine-3-carboxylic acid, (1:2) 2,2,2-trifluoroacetic acid salt]"
9,< 100,"N[C@@H]1C[C@H]1NS(=O)(=O)N1C[C@H](CCCB(O)O)[C@](N)(C(=O)O)C1 (racemic) [Example 15, (3R,4S)-3-amino-1-(N-((rac)trans-2-aminocyclopropyl)sulfamoyl)-4-(3-boronopropyl)pyrrolidine-3-carboxylic acid (diastereomers), (1:2) 2,2,2-trifluoroacetic acid salt]"
10,< 100,"C[C@H](CN)NS(=O)(=O)N1C[C@H](CCCB(O)O)[C@](N)(C(=O)O)C1 (racemic) [Example 16, (rac)trans-3-amino-1-(N-((R)-1-aminopropan-2-yl)sulfamoyl)-4-(3-boronopropyl)pyrrolidine-3-carboxylic acid (diastereomers), 2,2,2-trifluoroacetic acid salt (1:2)]"
11,< 100,"C[C@@H](N)CNS(=O)(=O)N1C[C@H](CCCB(O)O)[C@](N)(C(=O)O)C1 (racemic) [Example 17, (rac)trans-3-amino-1-(N-((R)-2-aminopropyl)sulfamoyl)-4-(3-boronopropyl)pyrrolidine-3-carboxylic acid (diastereomers), 2,2,2-trifluoroacetic acid salt (1:2) (Diasteromers)]"
12,100 to 1000,"NC1(CNS(=O)(=O)N2C[C@H](CCCB(O)O)[C@](N)(C(=O)O)C2)CC1 (racemic) [Example 19, (rac)-(trans)3-amino-1-(N-((1-aminocyclopropyl)methyl)sulfamoyl)-4-(3-boronopropyl)pyrrolidine-3-carboxylic acid, 2,2,2-trifluoroacetic acid salt (1:2)]"
13,> 10000,"N[C@@H]1CCCCC1NS(=O)(=O)N1C[C@H](CCCB(O)O)[C@](N)(C(=O)O)C1 (mixture of isomers) [Example 20, (rac)trans-3-amino-1-(N-((rac)cis-2-aminocyclohexyl)sulfamoyl)-4-(3-boronopropyl)pyrrolidine-3-carboxylic acid (diastereomers), 2,2,2-trifluoroacetic acid salt (1:2)]"
14,100 to 1000,"NCCCNS(=O)(=O)N1C[C@H](CCCB(O)O)[C@](N)(C(=O)O)C1 (racemic) [Example 21, (rac)-trans-3-amino-1-(N-(3-aminopropyl)sulfamoyl)-4-(3-boronopropyl)pyrrolidine-3-carboxylic acid (diastereomers), 2,2,2-trifluoroacetic acid salt (1:2)]"
15,100 to 1000,"N[C@H]1CCCCC1NS(=O)(=O)N1C[C@H](CCCB(O)O)[C@](N)(C(=O)O)C1 (mixture of isomers) [Example 22, (rac)-trans-3-amino-1-(N-(trans-2-aminocyclohexyl)sulfamoyl)-4-(3-boronopropyl)pyrrolidine-3-carboxylic acid (diastereomers), 2,2,2-trifluoroacetic acid salt (1:2)]"
16,100 to 1000,"N[C@H]1COCC1NS(=O)(=O)N1C[C@H](CCCB(O)O)[C@](N)(C(=O)O)C1 (mixture of isomers) [Example 23, (rac)-trans-3-amino-1-(N-((rac)cis-4-aminotetrahydrofuran-3-yl)sulfamoyl)-4-(3-boronopropyl)pyrrolidine-3-carboxylic acid (diastereomers), 2,2,2-trifluoroacetic acid salt (1:2)]"
17,< 100,"NC1CC(NS(=O)(=O)N2C[C@H](CCCB(O)O)[C@](N)(C(=O)O)C2)C1 (mixture of isomers) [Example 24, (rac)-trans-3-amino-1-(N-((rac)trans-3-aminocyclobutyl)sulfamoyl)-4-(3-boronopropyl)pyrrolidine-3-carboxylic acid compound with 2,2,2-trifluoroacetic acid (1:2)]"
18,100 to 1000,"NC1CN(S(=O)(=O)N2C[C@H](CCCB(O)O)[C@](N)(C(=O)O)C2)C1 (racemic) [Example 33, (rac)-trans-3-amino-1-((3-aminoazetidin-1-yl)sulfonyl)-4-(3-boronopropyl)pyrrolidine-3-carboxylic acid, 2,2,2-trifluoroacetic acid salt (1:2)]"
19,< 100,"N[C@@]1(C(=O)O)CN(S(=O)(=O)NC2CNC2)C[C@@H]1CCCB(O)O (racemic) [Example 34, (rac)-trans-3-amino-1-(N-(azetidin-3-yl)sulfamoyl)-4-(3-boronopropyl)pyrrolidine-3-carboxylic acid, 2,2,2-trifluoroacetic acid salt (1:2)]"
20,100 to 1000,"C[C@@H](N)C(=O)NS(=O)(=O)N1C[C@H](CCCB(O)O)[C@](N)(C(=O)O)C1 (racemic) [Example 35, (rac)-trans-1-(N-alanylsulfamoyl)-3-amino-4-(3-boronopropyl)pyrrolidine-3-carboxylic acid, 2,2,2-trifluoroacetic acid salt (1:2)]"
21,< 100,CC1(C)[C@H]2C[C@@H]3OB(CCC[C@H]4CN(S(=O)(=O)NCCN)C[C@@]4(N)C(=O)O)O[C@]3(C)[C@@H]1C2 (racemic) [Example 36]
22,100 to 1000,"N=C(NC(=O)CN)N1C[C@H](CCCB(O)O)[C@](N)(C(=O)O)C1 (racemic) [Example 38, rac-(trans)-3-amino-4-(3-boronopropyl)-1-(N-glycylcarbamimidoyl)pyrrolidine-3-carboxylic acid, 2,2,2-trifluoroacetic acid salt (1:2)]"
23,100 to 1000,"NC1(CNS(=O)(=O)N2C[C@H](CCCB(O)O)[C@](N)(C(=O)O)C2)COC1 (racemic) [Example 39, (rac)-trans-3-amino-1-(N-((3-aminooxetan-3-yl)methyl)sulfamoyl)-4-(3-boronopropyl)pyrrolidine-3-carboxylic acid, 2,2,2-trifluoroacetic acid salt (1:2)]"
24,100 to 1000,"NC1COCC1NS(=O)(=O)N1CC(CCCB(O)O)C(N)(C(=O)O)C1 (racemic) [Example 41, (rac)-trans-3-amino-1-(N-((trans)-4-aminotetrahydrofuran-3-yl)sulfamoyl)-4-(3-boronopropyl)pyrrolidine-3-carboxylic acid, 2,2,2-trifluoroacetic acid salt (1:2)]"
25,< 100,"CN(C1CNC1)S(=O)(=O)N1C[C@H](CCCB(O)O)[C@](N)(C(=O)O)C1 (racemic) [Example 42, (rac)-trans-3-amino-1-(N-(azetidin-3-yl)-N-methylsulfamoyl)-4-(3-boronopropyl)pyrrolidine-3-carboxylic acid, 2,2,2-trifluoroacetic acid salt (1:2)]"
26,100 to 1000,"CC1(NS(=O)(=O)N2C[C@H](CCCB(O)O)[C@](N)(C(=O)O)C2)CNC1 (racemic) [Example 43, (rac)-trans-3-amino-4-(3-boronopropyl)-1-(N-(3-methylazetidin-3-yl)sulfamoyl)pyrrolidine-3-carboxylic acid, 2,2,2-trifluoroacetic acid salt (1:2)]"
27,100 to 1000,"CN1CCN(S(=O)(=O)N2C[C@H](CCCB(O)O)[C@](N)(C(=O)O)C2)CC1 (racemic) [Example 44, (racemic)-trans-3-amino-4-(3-boronopropyl)-1-((4-methylpiperazin-1-yl)sulfonyl)pyrrolidine-3-carboxylic acid, 2,2,2-trifluoroacetic acid salt (1:2)]"
